Legend:
[1] = biological target: T1, NEK2 kinase (Accession No. NP-002488) (Homo sapiens, UniProt P51955); assay: HotSpot Kinase Assay, NEK2; format: biochemical; conditions: HotSpot Kinase Assay; read-out: NEK2 IC50
T1 construct: purchased ThermoFisher Scientific (Invitrogen)
T1 sequence (P51955 1-445): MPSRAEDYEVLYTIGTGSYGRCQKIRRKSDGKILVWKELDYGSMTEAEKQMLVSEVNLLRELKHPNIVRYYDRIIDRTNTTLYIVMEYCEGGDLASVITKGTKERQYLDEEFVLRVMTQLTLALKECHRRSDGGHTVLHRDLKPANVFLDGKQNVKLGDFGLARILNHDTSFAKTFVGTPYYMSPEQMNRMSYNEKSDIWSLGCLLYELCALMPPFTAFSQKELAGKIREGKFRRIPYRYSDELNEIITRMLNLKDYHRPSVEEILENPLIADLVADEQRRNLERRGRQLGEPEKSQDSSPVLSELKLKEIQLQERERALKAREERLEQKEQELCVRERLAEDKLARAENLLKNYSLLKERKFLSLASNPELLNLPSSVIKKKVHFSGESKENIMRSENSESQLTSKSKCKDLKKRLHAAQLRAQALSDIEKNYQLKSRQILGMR
Experimental: In this example, the compounds described herein were tested for their inhibitory activity against NEK2 and/or Aurora A using the HotSpot™ Kinase Assay (Reaction Biology Corp.). The assay was performed according to the manufacturer's protocol, as detailed below. The NEK2 kinase (Accession No. NP-002488) and Aurora A kinase (Accession No. NP-940839) for use in these assays was sourced from ThermoFisher Scientific (Invitrogen).
The base Reaction Buffer used in this experiment contained the following: 20 mM Hepes (pH 7.5), 10 mM MgCl2, 1 mM EGTA, 0.02% Brij™-35, 0.02 mg/ml BSA, 0.1 mM Na3VO4, 2 mM DTT, and 1% DMSO. The required cofactors were added individually to each kinase reaction.
Testing compounds were dissolved in 100% DMSO to a specific concentration. The serial dilution was conducted by Integra Viaflo Assist in DMSO.
The substrate was prepared in freshly prepared Reaction Buffer. The required cofactors were delivered to the substrate solution described above. NEK2 kinase or Aurora A kinase was delivered to the substrate solution and gently mixed. Next, the compounds in 100% DMSO were transferred to the kinase reaction mixture by Acoustic technology (Echo550; nanoliter range) and incubated for 20 min at room temperature. ^33P-ATP (Specific activity 10 μCi/μl) was delivered into the reaction mixture to initiate the reaction. The reaction was incubated for 2 hours at room temperature. Radioactivity was then detected by the filter-binding method. Kinase activity data were expressed as the percent remaining kinase activity in test samples compared to vehicle (dimethyl sulfoxide) reactions. IC50 values and curve fits were obtained using Prism (GraphPad Software).

NEK2 = biological target: T2, NEK2 (Homo sapiens, UniProt P51955); assay: NanoBRET Target Engagement Intracellular Kinase Assay for NEK2 in transfected HEK293 cells; format: cell-based; conditions: NEK2 target engagement, read-out: NanoBRET IC50
T2 construct: expressed in transfected cells; host or cells: HEK293
T2 sequence (P51955 1-445): T1 sequence (P51955 1-445)
Experimental: In this example, the compounds described herein were tested for their inhibitory activity against NEK2 using a model of in vivo activity by the NanoBRET™ Target Engagement Intracellular Kinase Assay (Reaction Biology Corp.). The assay was performed according to the manufacturer's protocol, as detailed below.
HEK293 cells were cultivated (70-80% confluence) prior to the assay. The sample was trypsinized and HEK293 cells were collected.
To prepare lipid: DNA complexes, a 10 μg/ml solution of DNA in Opti-MEM without serum was prepared that consisted of the following ratios of carrier DNA and DNA encoding NanoLuc® fusion: 9.0 μg/ml of Transfection Carrier DNA, 1.0 μg/ml of NanoLuc fusion vector DNA and 1 ml of Opti-MEM without phenol red. The solution was mixed thoroughly. 30 μl of FuGENE HD Transfection Reagent was added into each milliliter of DNA mixture to form lipid: DNA complex. The sample was mixed by inversion 10 times and then incubated at ambient temperature for 20 minutes to allow complexes to form. In a sterile, conical tube, 1 part of lipid:DNA complex was mixed with 20 parts of HEK293 cells in suspension. The resulting sample was mixed gently by inversion 5 times. The cell and lipid: DNA complex was dispensed into a sterile tissue culture dish and incubated for 22-24 hours.
Each test compound is delivered from the compound source plate to the wells of 384-well white NBS plate by Echo 550.
Step 3. Preparation of Cells with NanoBRET™ Tracer K5 Reagent:
The medium was removed from the dish with the transfected HEK293 cells via aspiration, trypsinized and cells were allowed to dissociate from the dish. Trypsin was neutralized using medium containing serum and centrifuged at 200×g for 5 minutes to pellet the cells. The cell density was adjusted to 2×10^5 cells/ml in Opti-MEM without phenol red.
The Complete 20× NanoBRET™ Tracer K5 Reagent with Tracer Dilution Buffer was prepared according to the manufacturer's instructions. One part of Complete 20× NanoBRET™ Tracer Reagent was added to 20 parts of cells in the tube. The sample was mixed gently by inversion 10 times. Next, the cell suspension was dispensed into white, 384-well NBS plates with a final tracer K5 concentration of 2 μM. The plate was incubated at 37° C., 5% CO2 for 1 hour. A separate set of samples without tracer were prepared for background correction steps.
The plate was removed from the incubator and equilibrated to room temperature for 15 minutes. The 3× Complete Substrate plus Inhibitor Solution in Assay Medium (Opti-MEMR I Reduced Serum Medium, no phenol red) was prepared just before measuring BRET. The 3× Complete Substrate plus Inhibitor Solution was added to each well of the 384-well plate and incubated for 2-3 minutes at room temperature. The donor emission wavelength (460 nm) and acceptor emission wavelength (600 nm) were measured using the Envision 2104 plate reader.
To generate raw BRET ratio values, the acceptor emission value (600 nm) was divided by the donor emission value (460 nm) for each sample. To correct for background, the BRET ratio in the absence of tracer (average of no-tracer control samples) was subtracted from the BRET ratio of each sample.
BRET Ratio=[(Acceptor sample÷Donor sample)−(Acceptor no-tracer control÷Donor no-tracer control)]

Row | IC50 [1] | IC50 (NEK2) | Structure (SMILES)
1 | > 15 nM | > 150 nM | N#Cc1c(Nc2nc(Nc3ccc(C(=O)N4CCNCC4)cc3)ncc2Cl)cccc1OCc1ccccc1F [Compound 6, 2-((5-chloro-2-((4-(piperazine-1-carbonyl)phenyl)amino)pyrimidin-4-yl)amino)-6-((2-fluorobenzyl)oxy)benzonitrile]
2 | ≤ 5 nM | 50 to 150 nM | N#Cc1c(Nc2nc(Nc3ccc(N4CCN(CCO)CC4)cc3)ncc2Cl)cccc1OCc1ccccc1F [Compound 17, 2-((5-chloro-2-((4-(4-(2-hydroxyethyl)piperazin-1-yl)phenyl)amino)pyrimidin-4-yl)amino)-6-((2-fluorobenzyl)oxy)benzonitrile]
3 | 5 to 15 nM | > 150 nM | N#Cc1c(Nc2nc(Nc3ccc(CN4CCNCC4)cc3)ncc2Cl)cccc1OCc1ccccc1F [Compound 15, 2-((5-chloro-2-((4-(piperazin-1-ylmethyl)phenyl)amino)pyrimidin-4-yl)amino)-6-((2-fluorobenzyl)oxy)benzonitrile]
4 | 5 to 15 nM | > 150 nM | N#Cc1c(Nc2nc(Nc3cnn(C4CCNCC4)c3)ncc2Cl)cccc1OCc1ccccc1F [Compound 31, 2-((5-chloro-2-((1-(piperidin-4-yl)-1H-pyrazol-4-yl)amino)pyrimidin-4-yl)amino)-6-((2-fluorobenzyl)oxy)benzonitrile]
5 | > 15 nM | ≤ 50 nM | N#Cc1c(Nc2nc(Nc3ccc(CN4CCOCC4)cc3)ncc2Cl)cccc1OCc1ccccc1F [Compound 1, 2-((5-chloro-2-((4-(morpholinomethyl)phenyl)amino)pyrimidin-4-yl)amino)-6-((2-fluorobenzyl)oxy)benzonitrile]
6 | ≤ 5 nM | 50 to 150 nM | CN1CCN(c2ccc(Nc3ncc(Cl)c(Nc4cccc(OCc5ccccc5F)c4C#N)n3)cc2)CC1 [Compound 18, 2-((5-chloro-2-((4-(4-methylpiperazin-1-yl)phenyl)amino)pyrimidin-4-yl)amino)-6-((2-fluorobenzyl)oxy)benzonitrile]
7 | > 15 nM | > 150 nM | N#Cc1c(Nc2nc(Nc3ccc(N4CCNCC4)cc3)ncc2Cl)cccc1OCc1ccc(F)cc1 [Compound 13, 2-((5-chloro-2-((4-(piperazin-1-yl)phenyl)amino)pyrimidin-4-yl)amino)-6-((4-fluorobenzyl)oxy)benzonitrile]
8 | > 15 nM | > 150 nM | C[C@@H](Oc1cccc(Nc2nc(Nc3ccc(N4CCN(C)CC4)cc3)ncc2Cl)c1C#N)c1ccccc1F [Compound 4, (R)-2-((5-chloro-2-((4-(4-methylpiperazin-1-yl)phenyl)amino)pyrimidin-4-yl)amino)-6-(1-(2-fluorophenyl)ethoxy)benzonitrile]
9 | ≤ 5 nM | > 150 nM | COc1cc(N2CCNCC2)ccc1Nc1ncc(Cl)c(Nc2cccc(OCc3ccccc3F)c2C#N)n1 [Compound 7, 2-((5-chloro-2-((2-methoxy-4-(piperazin-1-yl)phenyl)amino)pyrimidin-4-yl)amino)-6-((2-fluorobenzyl)oxy)benzonitrile]
10 | ≤ 5 nM | ≤ 50 nM | C[C@H](Oc1cccc(Nc2nc(Nc3ccc(N4CCN(C)CC4)cc3)ncc2Cl)c1C#N)c1ccccc1F [Compound 3, (S)-2-((5-chloro-2-((4-(4-methylpiperazin-1-yl)phenyl)amino)pyrimidin-4-yl)amino)-6-(1-(2-fluorophenyl)ethoxy)benzonitrile]
11 | ≤ 5 nM | ≤ 50 nM | COc1cc(Nc2ncc(Cl)c(Nc3cccc(OCc4ccccc4F)c3C#N)n2)ccc1N1CCNCC1 [Compound 9, 2-((5-chloro-2-((3-methoxy-4-(piperazin-1-yl)phenyl)amino)pyrimidin-4-yl)amino)-6-((2-fluorobenzyl)oxy)benzonitrile]
12 | > 15 nM | > 150 nM | N#Cc1c(Nc2nc(Nc3ccc(N4CCNCC4)cc3)ncc2Cl)cccc1OCc1cccc(F)c1 [Compound 14, 2-((5-chloro-2-((4-(piperazin-1-yl)phenyl)amino)pyrimidin-4-yl)amino)-6-((3-fluorobenzyl)oxy)benzonitrile]
13 | 5 to 15 nM | > 150 nM | N#Cc1c(Nc2nc(Nc3ccc(N4CCNCC4)nc3)ncc2Cl)cccc1OCc1ccccc1F [Compound 8, 2-((5-chloro-2-((6-(piperazin-1-yl)73yridine-3-yl)amino)pyrimidin-4-yl)amino)-6-((2-fluorobenzyl)oxy)benzonitrile]
14 | > 15 nM | > 150 nM | COc1ccccc1COc1cccc(Nc2nc(Nc3ccc(N4CCNCC4)cc3)ncc2Cl)c1C#N [Compound 11, 2-((5-chloro-2-((4-(piperazin-1-yl)phenyl)amino)pyrimidin-4-yl)amino)-6-((2-methoxybenzyl)oxy)benzonitrile]
15 | 5 to 15 nM | ≤ 50 nM | N#Cc1c(Nc2nc(Nc3ccc(N4CCNCC4)cc3)ncc2Cl)cccc1OCc1c(F)cccc1F [Compound 19, 2-((5-chloro-2-((4-(piperazin-1-yl)phenyl)amino)pyrimidin-4-yl)amino)-6-((2,6-difluorobenzyl)oxy)benzonitrile]
16 | ≤ 5 nM | 50 to 150 nM | N#Cc1c(Nc2nc(Nc3ccc(C4CCNCC4)cc3)ncc2Cl)cccc1OCc1ccccc1F [Compound 27, 2-((5-chloro-2-((4-(piperidin-4-yl)phenyl)amino)pyrimidin-4-yl)amino)-6-((2-fluorobenzyl)oxy)benzonitrile]
